Measurements: PubChem BioAssay (NCI)
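Dose response: 5 concentrations. Exposure: 48 h. Format: 96-well plates. Endpoint: linear interpolation; highest concentration if not reached. The concentration for full growth arrest is given as TGI.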

What was measured:
Test in all cases: NCI tumour cell line growth inhibition, 48 h
EKVX NSCLC = test system: EKVX NSCLC
K-562 leukemia = test system: K-562 leukemia
LOX IMVI melanoma = test system: LOX IMVI melanoma
MDA-N = test system: MDA-N
MDA-MB-231 breast = test system: MDA-MB-231 breast
A549 NSCLC = test system: A549 NSCLC
OVCAR-3 ovarian = test system: OVCAR-3 ovarian
SK-MEL-28 melanoma = test system: SK-MEL-28 melanoma
SF-539 CNS = test system: SF-539 CNS
OVCAR-8 ovarian = test system: OVCAR-8 ovarian
SNB-19 CNS = test system: SNB-19 CNS
UACC-62 melanoma = test system: UACC-62 melanoma
HCT-15 colon = test system: HCT-15 colon

With Cc1[nH]c2ncn(/N=C/c3ccccc3)c(=N)c2c1Cc1ccccc1 the TGI (EKVX NSCLC) was greater than 100 µM, the TGI (K-562 leukemia) was greater than 100 µM and the TGI (LOX IMVI melanoma) was greater than 100 µM. For the same compound, the TGI (MDA-N) was greater than 100 µM, the TGI (MDA-MB-231 breast) was greater than 100 µM and the TGI (A549 NSCLC) was greater than 100 µM. The TGI (OVCAR-3 ovarian) was greater than 100 µM, the TGI (SK-MEL-28 melanoma) was greater than 100 µM and the TGI (SF-539 CNS) was greater than 100 µM. It also gave a TGI (OVCAR-8 ovarian) greater than 100 µM, a TGI (SNB-19 CNS) greater than 100 µM and a TGI (UACC-62 melanoma) greater than 100 µM. For the same compound, the TGI (HCT-15 colon) was greater than 100 µM.

For CC1CCCc2c(-c3ccc(Cl)cc3)nc(N)c(C#N)c21 (configuration not stated), the TGI (EKVX NSCLC) was 65.8 µM, the TGI (K-562 leukemia) was 93.5 µM and the TGI (LOX IMVI melanoma) was 68 µM. It also gave a TGI (MDA-N) of 53.4 µM, a TGI (MDA-MB-231 breast) greater than 100 µM and a TGI (OVCAR-3 ovarian) greater than 100 µM. For the same compound, the TGI (SK-MEL-28 melanoma) was greater than 100 µM, the TGI (SF-539 CNS) was 92.3 µM and the TGI (OVCAR-8 ovarian) was 91.6 µM. The TGI (SNB-19 CNS) was greater than 100 µM, the TGI (UACC-62 melanoma) was 40.2 µM and the TGI (HCT-15 colon) was greater than 100 µM.

Work on O=c1cc(-c2ccc(O)c(O)c2)oc2cc(OC3OC(CO)C(O)C(O)C3O)cc(O)c12 (configuration not stated) yielded a TGI (EKVX NSCLC) greater than 100 µM, a TGI (LOX IMVI melanoma) greater than 100 µM and a TGI (MDA-N) greater than 100 µM. For the same compound, the TGI (MDA-MB-231 breast) was greater than 100 µM, the TGI (A549 NSCLC) was greater than 100 µM and the TGI (OVCAR-3 ovarian) was greater than 100 µM. For the same compound, the TGI (SK-MEL-28 melanoma) was greater than 100 µM, the TGI (SF-539 CNS) was greater than 100 µM and the TGI (OVCAR-8 ovarian) was greater than 100 µM. It also gave a TGI (SNB-19 CNS) greater than 100 µM, a TGI (UACC-62 melanoma) greater than 100 µM and a TGI (HCT-15 colon) greater than 100 µM.

Nc1ncc2c(n1)-c1ccccc1OC2NC1CC1 (configuration not stated) was tested, and the TGI (EKVX NSCLC) was greater than 100 µM, the TGI (LOX IMVI melanoma) was greater than 100 µM and the TGI (MDA-N) was greater than 100 µM. The TGI (MDA-MB-231 breast) was greater than 100 µM, the TGI (A549 NSCLC) was greater than 100 µM and the TGI (OVCAR-3 ovarian) was greater than 100 µM. For the same compound, the TGI (SF-539 CNS) was greater than 100 µM, the TGI (OVCAR-8 ovarian) was greater than 100 µM and the TGI (SNB-19 CNS) was greater than 100 µM. The TGI (UACC-62 melanoma) was greater than 100 µM and the TGI (HCT-15 colon) was greater than 100 µM.

CC[C@@]1(O)C(=O)OCc2c1c(Cl)c1n(c2=O)Cc2cc3ccccc3nc2-1 gave a TGI (EKVX NSCLC) greater than 70.5 µM, a TGI (K-562 leukemia) greater than 100 µM and a TGI (LOX IMVI melanoma) of 4.01 µM. For the same compound, the TGI (MDA-N) was greater than 100 µM, the TGI (MDA-MB-231 breast) was greater than 100 µM and the TGI (A549 NSCLC) was greater than 63.2 µM. For the same compound, the TGI (OVCAR-3 ovarian) was 22.1 µM, the TGI (SK-MEL-28 melanoma) was greater than 100 µM and the TGI (SF-539 CNS) was 6.09 µM. For the same compound, the TGI (OVCAR-8 ovarian) was 22.9 µM, the TGI (SNB-19 CNS) was 56.7 µM and the TGI (UACC-62 melanoma) was 3.38 µM. It also gave a TGI (HCT-15 colon) greater than 81.6 µM.

CCOc1ccc(C2c3[nH]c4ccccc4c3CCN2C(=O)c2cccs2)cc1 (configuration not stated) was tested, and the TGI (EKVX NSCLC) was greater than 100 µM, the TGI (K-562 leukemia) was greater than 100 µM and the TGI (LOX IMVI melanoma) was greater than 100 µM. For the same compound, the TGI (MDA-N) was greater than 100 µM, the TGI (MDA-MB-231 breast) was greater than 100 µM and the TGI (A549 NSCLC) was greater than 100 µM. For the same compound, the TGI (OVCAR-3 ovarian) was greater than 100 µM, the TGI (SK-MEL-28 melanoma) was greater than 100 µM and the TGI (SF-539 CNS) was greater than 100 µM. It also gave a TGI (OVCAR-8 ovarian) greater than 100 µM, a TGI (SNB-19 CNS) greater than 100 µM and a TGI (UACC-62 melanoma) greater than 100 µM. It also gave a TGI (HCT-15 colon) greater than 100 µM.

CN(C)c1ccc(C(C#N)N2CCCN(C(C#N)c3ccc(N(C)C)cc3)C2c2ccc(N(C)C)cc2)cc1 (configuration not stated) showed a TGI (EKVX NSCLC) greater than 100 µM, a TGI (K-562 leukemia) greater than 100 µM and a TGI (LOX IMVI melanoma) greater than 100 µM. For the same compound, the TGI (MDA-N) was greater than 100 µM, the TGI (MDA-MB-231 breast) was greater than 100 µM and the TGI (A549 NSCLC) was greater than 100 µM. The TGI (OVCAR-3 ovarian) was greater than 100 µM, the TGI (SK-MEL-28 melanoma) was greater than 100 µM and the TGI (SF-539 CNS) was greater than 100 µM. The TGI (OVCAR-8 ovarian) was greater than 100 µM, the TGI (SNB-19 CNS) was greater than 100 µM and the TGI (UACC-62 melanoma) was greater than 100 µM. It also gave a TGI (HCT-15 colon) greater than 100 µM.
